Reference: paper PMC8550792, “Evolution of kinase polypharmacology across HSP90 drug discovery” (Cell Chemical Biology, 2021)

Tests used:
ABL1 [1] = biological target: ABL1; set-up: method as in Becher et al., 2013; details: chemoproteomics; ref Becher et al., 2013; read-out: Kd,app (ATP-Mg), ABL1; cited from earlier work
ABL2 = biological target: ABL2; set-up: method as in Becher et al., 2013; details: chemoproteomics; ref Becher et al., 2013; read-out: Kd,app (ATP-Mg), ABL2; cited from earlier work
DDR1 [2] = biological target: DDR1; set-up: method as in Becher et al., 2013; details: chemoproteomics; ref Becher et al., 2013; read-out: Kd,app (ATP-Mg), DDR1; cited from earlier work
ABL2/ARG = biological target: T1, ABL2/ARG (Homo sapiens, UniProt P42684); test: HotSpot in vitro kinase radiometric assay; format: biochemical; details: ABL2/ARG; 10uM; ATP 30 uM; Data 1, Data 2; read-out: % Enzyme Activity (relative to DMSO controls)
T1 construct: purchased Reaction Biology (HotSpot contract assay)

BLK = biological target: T2, BLK (Homo sapiens, UniProt P51451); test: HotSpot in vitro kinase radiometric assay; format: biochemical; details: BLK; 10uM; ATP 10 uM; Data 1, Data 2; read-out: % Enzyme Activity (relative to DMSO controls)
T2 construct: purchased Reaction Biology (HotSpot contract assay)
T2 sequence (P51451 whole entry): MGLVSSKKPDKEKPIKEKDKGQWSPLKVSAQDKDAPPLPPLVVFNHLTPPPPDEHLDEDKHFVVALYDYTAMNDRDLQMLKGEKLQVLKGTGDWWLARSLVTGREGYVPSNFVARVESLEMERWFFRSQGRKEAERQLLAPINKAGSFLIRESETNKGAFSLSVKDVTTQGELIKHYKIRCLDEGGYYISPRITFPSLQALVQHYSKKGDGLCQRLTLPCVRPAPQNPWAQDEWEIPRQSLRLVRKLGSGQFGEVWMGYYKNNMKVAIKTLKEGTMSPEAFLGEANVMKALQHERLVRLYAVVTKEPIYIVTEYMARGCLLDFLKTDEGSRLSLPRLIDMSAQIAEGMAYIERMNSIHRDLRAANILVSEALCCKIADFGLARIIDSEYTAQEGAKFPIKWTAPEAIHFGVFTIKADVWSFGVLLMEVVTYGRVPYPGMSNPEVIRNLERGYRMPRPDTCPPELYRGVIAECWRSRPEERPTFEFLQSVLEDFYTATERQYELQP
Description: (§1) Accordingly, we selected five additional representative HSP90 inhibitors, at least one from each chemical class, including both synthetic inhibitors and natural products. […]
(§2) This radioisotope binding assay was designed to directly detect the true product without the use of modified substrates, coupling enzymes, or detection antibodies thus enabling to directly measure inhibition of catalytic activity. Test or control compounds were incubated with kinase, substrate, cofactors, and radioisotope-labeled ATP (32P-ɣ-ATP or 33P-ɣ-ATP). The reaction mixtures were then spotted onto filter papers, which bind the radioisotope-labeled catalytic product.

LYN B = biological target: T3, LYN B (Homo sapiens, UniProt P07948); test: HotSpot in vitro kinase radiometric assay; format: biochemical; details: LYN B; 10uM; ATP 20 uM; Data 1, Data 2; read-out: % Enzyme Activity (relative to DMSO controls)
T3 construct: purchased Reaction Biology (HotSpot contract assay)
T3 sequence (P07948 1-491 isoform P07948-2): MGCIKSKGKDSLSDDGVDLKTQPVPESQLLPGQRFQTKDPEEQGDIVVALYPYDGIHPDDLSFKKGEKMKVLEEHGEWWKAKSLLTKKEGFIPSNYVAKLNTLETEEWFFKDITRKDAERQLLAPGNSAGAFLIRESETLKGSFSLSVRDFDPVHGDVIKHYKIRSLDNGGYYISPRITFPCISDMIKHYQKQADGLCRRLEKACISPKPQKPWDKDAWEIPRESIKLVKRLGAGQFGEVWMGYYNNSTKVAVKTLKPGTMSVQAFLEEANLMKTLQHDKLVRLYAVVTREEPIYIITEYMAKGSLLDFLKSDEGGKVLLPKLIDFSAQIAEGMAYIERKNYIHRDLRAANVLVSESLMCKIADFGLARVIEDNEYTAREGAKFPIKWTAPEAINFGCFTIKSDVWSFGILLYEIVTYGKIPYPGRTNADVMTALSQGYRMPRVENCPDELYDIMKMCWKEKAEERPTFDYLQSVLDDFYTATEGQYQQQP
Description: as §1, §2

c-Src = biological target: T4, c-Src (Homo sapiens, UniProt P12931); test: HotSpot in vitro kinase radiometric assay; format: biochemical; details: c-Src; 10uM; ATP 15 uM; Data 1, Data 2; read-out: % Enzyme Activity (relative to DMSO controls)
T4 construct: purchased Reaction Biology (HotSpot contract assay)
Description: as §1, §2

PEAK1 = biological target: T5, PEAK1 (Homo sapiens, UniProt Q9H792); test: HotSpot in vitro kinase radiometric assay; format: biochemical; details: PEAK1; 10uM; ATP 30 uM; Data 1, Data 2; read-out: % Enzyme Activity (relative to DMSO controls)
T5 construct: purchased Reaction Biology (HotSpot contract assay)
T5 sequence (Q9H792 whole entry): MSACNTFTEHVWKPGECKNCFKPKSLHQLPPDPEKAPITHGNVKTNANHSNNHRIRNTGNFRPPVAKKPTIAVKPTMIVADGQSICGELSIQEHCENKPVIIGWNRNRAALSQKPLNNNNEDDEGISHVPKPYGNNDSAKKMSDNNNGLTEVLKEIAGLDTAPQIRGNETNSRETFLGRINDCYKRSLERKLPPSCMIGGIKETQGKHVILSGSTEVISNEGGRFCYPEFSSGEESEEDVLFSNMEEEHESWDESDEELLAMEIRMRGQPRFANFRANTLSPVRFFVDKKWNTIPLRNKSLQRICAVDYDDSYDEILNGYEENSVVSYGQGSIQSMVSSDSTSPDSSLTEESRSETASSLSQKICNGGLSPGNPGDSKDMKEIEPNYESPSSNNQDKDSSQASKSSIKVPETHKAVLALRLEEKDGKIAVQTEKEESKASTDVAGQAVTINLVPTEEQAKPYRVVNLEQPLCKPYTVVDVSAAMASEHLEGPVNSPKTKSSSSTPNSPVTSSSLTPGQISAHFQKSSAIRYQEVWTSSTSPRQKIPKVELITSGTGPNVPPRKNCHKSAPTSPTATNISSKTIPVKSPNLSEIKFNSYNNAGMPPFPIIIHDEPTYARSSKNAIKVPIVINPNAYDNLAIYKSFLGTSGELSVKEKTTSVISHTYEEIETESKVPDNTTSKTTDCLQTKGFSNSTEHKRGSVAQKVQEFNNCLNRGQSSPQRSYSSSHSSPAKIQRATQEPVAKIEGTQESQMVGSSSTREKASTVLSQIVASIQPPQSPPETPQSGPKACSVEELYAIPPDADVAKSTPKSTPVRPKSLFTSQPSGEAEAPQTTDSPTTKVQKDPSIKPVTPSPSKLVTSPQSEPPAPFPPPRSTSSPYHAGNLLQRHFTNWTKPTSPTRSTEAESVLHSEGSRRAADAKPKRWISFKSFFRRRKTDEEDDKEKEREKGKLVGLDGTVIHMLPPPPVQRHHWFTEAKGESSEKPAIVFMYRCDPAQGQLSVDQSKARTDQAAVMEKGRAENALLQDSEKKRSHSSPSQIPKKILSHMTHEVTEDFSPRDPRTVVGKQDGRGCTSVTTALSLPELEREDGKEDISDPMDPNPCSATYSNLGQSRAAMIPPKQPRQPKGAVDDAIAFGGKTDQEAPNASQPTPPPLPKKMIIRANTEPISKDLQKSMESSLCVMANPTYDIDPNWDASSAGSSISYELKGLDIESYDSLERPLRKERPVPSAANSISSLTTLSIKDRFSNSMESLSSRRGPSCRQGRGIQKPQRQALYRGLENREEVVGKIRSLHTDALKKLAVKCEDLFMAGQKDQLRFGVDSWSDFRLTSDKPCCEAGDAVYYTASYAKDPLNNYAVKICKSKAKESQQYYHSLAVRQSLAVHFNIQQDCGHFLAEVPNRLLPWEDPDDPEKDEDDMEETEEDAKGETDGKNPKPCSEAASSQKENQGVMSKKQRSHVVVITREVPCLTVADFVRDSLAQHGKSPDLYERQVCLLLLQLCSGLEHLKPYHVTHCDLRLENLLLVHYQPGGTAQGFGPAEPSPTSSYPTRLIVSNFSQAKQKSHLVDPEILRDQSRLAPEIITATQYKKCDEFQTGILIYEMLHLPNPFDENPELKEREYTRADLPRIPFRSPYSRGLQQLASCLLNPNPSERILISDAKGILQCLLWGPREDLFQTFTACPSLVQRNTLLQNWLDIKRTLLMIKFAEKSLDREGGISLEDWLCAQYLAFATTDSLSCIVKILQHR

FGR = biological target: T6, FGR (Homo sapiens, UniProt P09769); test: HotSpot in vitro kinase radiometric assay; format: biochemical; details: FGR; 10uM; ATP 50 uM; Data 1, Data 2; read-out: % Enzyme Activity (relative to DMSO controls)
T6 construct: purchased Reaction Biology (HotSpot contract assay)

FYN = biological target: T7, FYN (Homo sapiens, UniProt P06241); test: HotSpot in vitro kinase radiometric assay; format: biochemical; details: FYN; 10uM; ATP 30 uM; Data 1, Data 2; read-out: % Enzyme Activity (relative to DMSO controls)
T7 construct: purchased Reaction Biology (HotSpot contract assay)
T7 sequence (P06241 whole entry): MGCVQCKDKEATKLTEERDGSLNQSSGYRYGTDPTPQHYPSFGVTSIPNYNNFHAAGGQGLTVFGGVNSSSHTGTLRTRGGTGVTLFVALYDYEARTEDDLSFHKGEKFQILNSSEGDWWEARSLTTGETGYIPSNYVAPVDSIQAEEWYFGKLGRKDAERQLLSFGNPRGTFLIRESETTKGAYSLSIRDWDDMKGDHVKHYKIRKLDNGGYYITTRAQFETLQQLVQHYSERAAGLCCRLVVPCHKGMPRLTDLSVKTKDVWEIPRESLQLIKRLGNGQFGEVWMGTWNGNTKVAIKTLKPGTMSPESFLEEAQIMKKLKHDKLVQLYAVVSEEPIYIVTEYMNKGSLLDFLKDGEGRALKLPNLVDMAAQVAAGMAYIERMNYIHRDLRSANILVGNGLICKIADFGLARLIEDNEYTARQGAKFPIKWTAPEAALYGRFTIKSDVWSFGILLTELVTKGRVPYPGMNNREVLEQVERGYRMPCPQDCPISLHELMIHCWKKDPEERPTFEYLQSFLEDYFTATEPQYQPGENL

PASK = biological target: T8, PASK (Homo sapiens, UniProt Q96RG2); test: HotSpot in vitro kinase radiometric assay; format: biochemical; details: PASK; 10uM; ATP 50 uM; Data 1, Data 2; read-out: % Enzyme Activity (relative to DMSO controls)
T8 construct: purchased Reaction Biology (HotSpot contract assay)
Text: (§3) Accordingly, we selected five additional representative HSP90 inhibitors, at least one from each chemical class, including both synthetic inhibitors and natural products.
(§4) Accordingly, we screened the hit compound and the two leads for kinase off-target inhibition using the 16-kinase panel and the same in vitro catalytic assay used previously.
as §2

TRKA = biological target: T9, TRKA (Homo sapiens, UniProt P04629); test: HotSpot in vitro kinase radiometric assay; format: biochemical; details: TRKA; 10uM; ATP 100 uM; Data 1, Data 2; read-out: % Enzyme Activity (relative to DMSO controls)
T9 construct: purchased Reaction Biology (HotSpot contract assay)
Text: as §3, §4, §2

TRKC = biological target: T10, TRKC (Homo sapiens, UniProt Q16288); test: HotSpot in vitro kinase radiometric assay; format: biochemical; details: TRKC; 10uM; ATP 100 uM; Data 1, Data 2; read-out: % Enzyme Activity (relative to DMSO controls)
T10 construct: purchased Reaction Biology (HotSpot contract assay)
T10 sequence (Q16288 32-839): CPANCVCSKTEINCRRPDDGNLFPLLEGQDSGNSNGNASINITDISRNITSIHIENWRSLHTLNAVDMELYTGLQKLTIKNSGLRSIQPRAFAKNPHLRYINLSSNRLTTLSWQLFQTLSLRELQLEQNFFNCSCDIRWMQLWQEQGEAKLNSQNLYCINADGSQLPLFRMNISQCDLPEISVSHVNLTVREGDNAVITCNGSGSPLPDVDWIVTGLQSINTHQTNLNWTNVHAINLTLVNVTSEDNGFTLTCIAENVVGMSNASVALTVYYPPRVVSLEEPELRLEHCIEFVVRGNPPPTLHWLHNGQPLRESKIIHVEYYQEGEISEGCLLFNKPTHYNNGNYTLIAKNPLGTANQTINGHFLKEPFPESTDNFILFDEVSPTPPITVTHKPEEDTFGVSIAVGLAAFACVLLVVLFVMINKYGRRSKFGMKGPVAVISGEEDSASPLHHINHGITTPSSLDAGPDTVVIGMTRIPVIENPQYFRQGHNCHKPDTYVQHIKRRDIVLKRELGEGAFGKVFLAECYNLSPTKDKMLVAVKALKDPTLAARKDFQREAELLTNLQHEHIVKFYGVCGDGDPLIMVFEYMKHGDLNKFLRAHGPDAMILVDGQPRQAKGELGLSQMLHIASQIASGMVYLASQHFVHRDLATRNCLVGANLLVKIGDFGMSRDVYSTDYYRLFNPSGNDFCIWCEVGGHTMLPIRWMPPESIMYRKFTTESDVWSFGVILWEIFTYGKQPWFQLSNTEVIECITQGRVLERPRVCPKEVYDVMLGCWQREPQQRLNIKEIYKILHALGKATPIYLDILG

LCK = biological target: T11, LCK (Homo sapiens, UniProt P06239); test: HotSpot in vitro kinase radiometric assay; format: biochemical; details: LCK; 10uM; ATP 15 uM; Data 1, Data 2; read-out: % Enzyme Activity (relative to DMSO controls)
T11 construct: purchased Reaction Biology (HotSpot contract assay)

YES/YES1 = biological target: T12, YES/YES1 (Homo sapiens, UniProt P07947); test: HotSpot in vitro kinase radiometric assay; format: biochemical; details: YES/YES1; 10uM; ATP 50 uM; Data 1, Data 2; read-out: % Enzyme Activity (relative to DMSO controls)
T12 construct: purchased Reaction Biology (HotSpot contract assay)

16-kinase panel = 16-kinase panel screening, in vitro radiometric assay; format: biochemical, human; details: 10 μM
[3] = biological target: human 3-methyl-2-oxobutanoate dehydrogenase kinase (BCKDHK); set-up: method as in Besant et al., 2002; details: ref Besant et al., 2002; cited from earlier work
[4] = biological target: bacterial sensor kinase PhoQ; set-up: method as in Guarnieri et al., 2008; details: ref Guarnieri et al., 2008; cited from earlier work
[5] = biological target: human pyruvate dehydrogenase kinases; set-up: method as in Kato et al., 2007; details: ref Kato et al., 2007; cited from earlier work
ABL1 [6] = biological target: ABL1 (Homo sapiens, UniProt P00519); test: HotSpot in vitro kinase radiometric assay; format: biochemical; set-up: purchased Reaction Biology (HotSpot contract assay); details: ABL1; 10uM; ATP 40 uM; Data 1, Data 2; read-out: % Enzyme Activity (relative to DMSO controls)
DDR1 [7] = biological target: DDR1 (Homo sapiens, UniProt Q08345); test: HotSpot in vitro kinase radiometric assay; format: biochemical; set-up: purchased Reaction Biology (HotSpot contract assay); details: DDR1; 10uM; ATP 100 uM; Data 1, Data 2; read-out: % Enzyme Activity (relative to DMSO controls)
Chain of DDR1 (Homo sapiens, UniProt Q08345) (Q08345 19-913): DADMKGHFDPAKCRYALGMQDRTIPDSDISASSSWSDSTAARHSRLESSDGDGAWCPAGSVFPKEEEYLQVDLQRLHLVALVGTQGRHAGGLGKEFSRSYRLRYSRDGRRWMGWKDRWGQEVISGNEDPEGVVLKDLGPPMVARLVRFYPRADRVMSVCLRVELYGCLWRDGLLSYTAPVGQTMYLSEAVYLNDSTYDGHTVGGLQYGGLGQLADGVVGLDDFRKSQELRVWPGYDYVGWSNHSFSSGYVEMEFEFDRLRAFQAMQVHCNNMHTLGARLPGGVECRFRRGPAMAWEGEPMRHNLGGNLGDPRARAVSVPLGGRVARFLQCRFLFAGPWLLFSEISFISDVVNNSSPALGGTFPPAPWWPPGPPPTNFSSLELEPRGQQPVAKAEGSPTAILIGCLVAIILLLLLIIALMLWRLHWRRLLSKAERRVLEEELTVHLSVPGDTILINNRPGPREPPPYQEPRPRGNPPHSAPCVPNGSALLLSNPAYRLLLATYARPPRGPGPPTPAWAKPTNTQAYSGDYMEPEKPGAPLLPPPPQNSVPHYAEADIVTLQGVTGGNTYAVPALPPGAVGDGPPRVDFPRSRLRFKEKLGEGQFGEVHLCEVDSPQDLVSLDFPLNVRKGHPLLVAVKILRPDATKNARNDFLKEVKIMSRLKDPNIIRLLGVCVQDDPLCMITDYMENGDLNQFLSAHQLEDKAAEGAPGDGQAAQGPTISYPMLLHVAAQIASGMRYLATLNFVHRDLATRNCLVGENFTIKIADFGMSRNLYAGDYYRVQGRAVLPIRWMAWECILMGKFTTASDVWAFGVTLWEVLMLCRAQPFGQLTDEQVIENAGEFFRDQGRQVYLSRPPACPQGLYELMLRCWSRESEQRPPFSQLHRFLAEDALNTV

In the case of Nc1ncnc2c1ncn2[C@@H]1O[C@H](COP(=O)(O)OP(=O)(O)OP(=O)(O)O)[C@@H](O)[C@H]1O [ATP-Mg], the Kd (ABL1 [1]) is listed as 37 to 99 µM, the Kd (ABL2) is listed as 423 µM and the Kd (DDR1 [2]) is listed as greater than 1000 µM.
C[C@@H]1C[C@H]2O[C@@H]2/C=C\C=C\C(=O)Cc2c(Cl)c(O)cc(O)c2C(=O)O1 [Radicicol] gave a remaining activity at 10 µM (ABL2/ARG) of 117%, a remaining activity at 10 µM (BLK) of 104% and a remaining activity at 10 µM (LYN B) of 114%. It also gave a remaining activity at 10 µM (c-Src) of 96.8%, a remaining activity at 10 µM (PEAK1) of 104% and a remaining activity at 10 µM (FGR) of 112%. For the same compound, the remaining activity at 10 µM (FYN) was 110%, the remaining activity at 10 µM (PASK) was 94.4% and the remaining activity at 10 µM (TRKA) was 106%. It also gave a remaining activity at 10 µM (TRKC) of 98.6%, a remaining activity at 10 µM (LCK) of 119% and a remaining activity at 10 µM (YES/YES1) of 103%. The “activity against the 16-kinase panel” value (16-kinase panel) was “inactive”, the IC50 [3] was 0.635 µM and the Kd [4] was 715 µM. For the same compound, the IC50 [5] was 230 to 400 µM, the remaining activity at 10 µM (ABL1 [6]) was 106% and the remaining activity at 10 µM (DDR1 [7]) was 105%.
